What all share (type): functional, cell membranes, Membrane
Common to all, as to details: komagataella pastoris

Data set [1] addresses T1, ATP-binding cassette sub-family C member 6 (Rattus norvegicus, UniProt O88269). The experiment in a line: TP_TRANSPORTER: inhibition of photolabeling by IAARh123 (IAARh123: 1 uM, DOX: 1000 uM) in membranes from Mrp6-expressing P. pastoris.
For data set [2], the target named is T1, ATP-binding cassette sub-family C member 6. The experiment in a line: TP_TRANSPORTER: inhibition of photolabeling by IAARh123 (IAARh123: 1 uM, VP-16: 1000 uM) in membranes from Mrp6-expressing P. pastoris.
For data set [3] the target is unchanged. The experiment in a line: TP_TRANSPORTER: inhibition of photolabeling by IAARh123 (IAARh123: 1 uM, LTC4: 300 uM) in membranes from Mrp6-expressing P. pastoris.
Data set [4] shares this target. The experiment in a line: TP_TRANSPORTER: inhibition of photolabeling by IAARh123 (IAARh123: 1 uM, K571: 1000 uM) in membranes from Mrp6-expressing P. pastoris.
The target is the same in data set [5]. The experiment in a line: TP_TRANSPORTER: inhibition of photolabeling by IAARh123 (IAARh123: 1 uM, VBL: 1000 uM) in membranes from Mrp6-expressing P. pastoris.

SMILES strings stand for the structures.

T1 sequence (O88269 whole entry): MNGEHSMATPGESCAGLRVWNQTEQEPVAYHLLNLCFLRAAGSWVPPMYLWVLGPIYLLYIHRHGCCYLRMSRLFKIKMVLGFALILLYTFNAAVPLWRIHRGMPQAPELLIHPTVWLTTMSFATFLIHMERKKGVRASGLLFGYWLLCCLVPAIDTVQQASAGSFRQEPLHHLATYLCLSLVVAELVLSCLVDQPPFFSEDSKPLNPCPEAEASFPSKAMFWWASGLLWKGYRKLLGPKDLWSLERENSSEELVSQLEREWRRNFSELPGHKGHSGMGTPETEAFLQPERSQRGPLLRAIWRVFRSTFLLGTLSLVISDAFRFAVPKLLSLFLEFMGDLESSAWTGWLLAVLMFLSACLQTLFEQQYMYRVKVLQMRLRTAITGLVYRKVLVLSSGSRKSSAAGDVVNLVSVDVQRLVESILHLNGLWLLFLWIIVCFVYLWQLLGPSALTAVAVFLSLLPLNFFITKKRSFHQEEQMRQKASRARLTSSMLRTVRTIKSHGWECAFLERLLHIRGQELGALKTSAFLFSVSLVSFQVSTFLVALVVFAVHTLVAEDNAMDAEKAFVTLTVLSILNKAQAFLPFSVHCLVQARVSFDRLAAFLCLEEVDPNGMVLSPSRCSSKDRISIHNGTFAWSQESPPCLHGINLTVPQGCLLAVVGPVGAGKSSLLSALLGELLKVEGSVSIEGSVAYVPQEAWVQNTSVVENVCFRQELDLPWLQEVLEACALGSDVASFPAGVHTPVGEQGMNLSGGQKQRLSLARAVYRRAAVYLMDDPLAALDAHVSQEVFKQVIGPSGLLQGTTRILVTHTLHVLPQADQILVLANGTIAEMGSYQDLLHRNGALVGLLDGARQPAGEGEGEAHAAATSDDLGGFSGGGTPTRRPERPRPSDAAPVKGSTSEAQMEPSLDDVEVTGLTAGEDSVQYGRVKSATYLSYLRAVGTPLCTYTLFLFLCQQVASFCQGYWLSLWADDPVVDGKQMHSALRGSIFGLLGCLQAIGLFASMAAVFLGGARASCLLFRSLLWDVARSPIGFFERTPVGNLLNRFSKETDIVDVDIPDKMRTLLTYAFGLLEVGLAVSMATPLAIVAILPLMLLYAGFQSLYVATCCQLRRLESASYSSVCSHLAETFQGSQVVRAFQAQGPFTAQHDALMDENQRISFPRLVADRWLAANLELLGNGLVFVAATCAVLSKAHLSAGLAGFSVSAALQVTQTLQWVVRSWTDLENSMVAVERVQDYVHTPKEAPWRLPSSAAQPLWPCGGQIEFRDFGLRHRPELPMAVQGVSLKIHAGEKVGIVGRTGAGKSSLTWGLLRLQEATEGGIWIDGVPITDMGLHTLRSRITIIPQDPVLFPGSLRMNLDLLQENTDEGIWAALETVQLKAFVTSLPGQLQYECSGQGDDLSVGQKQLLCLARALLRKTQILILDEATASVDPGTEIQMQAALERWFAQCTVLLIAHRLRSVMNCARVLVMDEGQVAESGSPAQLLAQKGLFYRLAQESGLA

In the case of `COc1cccc2c1C(=O)c1c(O)c3c(c(O)c1C2=O)C[C@@](O)(C(=O)CO)C[C@@H]3O[C@H]1C[C@H](N)[C@H](O)[C@H](C)O1` [DOXORUBICIN], in data set [1], the Activity result was “inhibitor [(at a rough estimate) 55 % of control]”.

With `COc1cc([C@@H]2c3cc4c(cc3[C@@H](O[C@@H]3O[C@@H]5CO[C@@H](C)O[C@H]5[C@H](O)[C@H]3O)[C@H]3COC(=O)[C@H]23)OCO4)cc(OC)c1O` [ETOPOSIDE], the Activity result in data set [2] is “is not an inhibitor [-]”.

As for `CCCCC/C=C\C\C=C/C=C/C=C/[C@@H](SC[C@@H](NC(=O)CC[C@H](N)C(=O)O)C(=O)NCC(=O)O)[C@@H](O)CCCC(=O)O` [LEUKOTRIEN C4], the Activity result in data set [3] is “is not an inhibitor [-]”.

For `CN(C)C(=O)CCSC(SCCC(=O)O)c1cccc(/C=C/c2ccc3ccc(Cl)cc3n2)c1` (stereo not given) [MK-571], the Activity entry in data set [4] was “inhibitor [(at a rough estimate) 60 % of control]”.

Take `CC[C@]1(O)C[C@@H]2CN(CCc3c([nH]c4ccccc34)[C@@](C(=O)OC)(c3cc4c(cc3OC)N(C)[C@H]3[C@@](O)(C(=O)OC)[C@H](OC(C)=O)[C@]5(CC)C=CCN6CC[C@]43[C@@H]65)C2)C1` [VINBLASTINE]: the Activity entry in data set [5] is “inhibitor [(at a rough estimate) 55 % of control]”.

(Values after ChEMBL document CHEMBL2074150, “Nucleotide binding and nucleotide hydrolysis properties of the ABC transporter MRP6 (ABCC6)” (Biochemistry, 2002).)
